Where two headings read alike, the source gives them in different places.
Test system: PANC-1 cells
Assay: cell viability assay in PANC-1 cells (compound alone, + 100 ng/ml TNFa, + 300 ng/ml TRAIL)
Type: cell-based
[1] = Homo sapiens, PANC-1, compound alone, Tables 6-10, read-out: IC50 (μM) in cell viability assay in PANC-1 cells: Compound alone
[2] = with 100 ng/ml TNFa, Tables 6-10, read-out: IC50 (μM) in cell viability assay in PANC-1 cells: Compound + 100 ng/ml TNFa
[3] = with 300 ng/ml TRAIL, Tables 6-10, read-out: IC50 (μM) in cell viability assay in PANC-1 cells: Compound + 300 ng/ml TRAIL
[4] = compound alone, Tables 6-10, read-out: IC50 (μM) in cell viability assay in PANC-1 cells: Compound alone
[5] = Homo sapiens, PANC-1 cells, compound alone, read-out: IC50 (uM) in cell viability assay in PANC-1 cells, Cmpnd alone
[6] = PANC-1 cells, + 100 ng/ml TNFa, read-out: IC50 (uM) in cell viability assay in PANC-1 cells, Cmpnd + 100 ng/ml TNFa
[7] = PANC-1 cells, + 300 ng/ml TRAIL, read-out: IC50 (uM) in cell viability assay in PANC-1 cells, Cmpnd + 300 ng/ml TRAIL
[8] = Homo sapiens, PANC-1, compound alone, Tables 15-18, read-out: IC50 (uM) in cell viability assay in PANC-1 cells: Cmpnd alone
[9] = with 100 ng/ml TNFa, Tables 15-18, read-out: IC50 (uM) in cell viability assay in PANC-1 cells: Cmpnd + 100 ng/ml TNFa
[10] = with 300 ng/ml TRAIL, Tables 15-18, read-out: IC50 (uM) in cell viability assay in PANC-1 cells: Cmpnd + 300 ng/ml TRAIL

IC50 [1] [µM] | IC50 [2] [µM] | IC50 [3] [µM] | SMILES | other results
> 1 | 0.577 | 0.622 | CN[C@@H](C)C(=O)Nc1nc(-c2ccccc2)c(C(=O)NCCc2cn([C@H]3C[C@@H](C(=O)N[C@@H]4CCCc5ccccc54)N(C(=O)[C@@H](NC(=O)[C@H](C)NC)C(C)(C)C)C3)nn2)s1 [Compound 196] | 
> 1 | > 1 | > 1 | CN[C@@H](C)C(=O)Nc1nc(CC(=O)NCCc2cn([C@H]3C[C@@H](C(=O)N[C@@H]4CCCc5ccccc54)N(C(=O)[C@@H](NC(=O)[C@H](C)NC)C(C)(C)C)C3)nn2)cs1 [Compound 195] | 
 | 0.104 | 0.081 | CCC1(NC(=O)[C@@H]2C[C@H](NC(=O)c3cccc(C(=O)N[C@H]4C[C@@H](C(=O)NC5(CC)CCCc6ccccc65)N(C(=O)[C@@H](NC(=O)[C@H](C)NC)C(C)(C)C)C4)c3)CN2C(=O)[C@@H](NC(=O)[C@H](C)NC)C(C)(C)C)CCCc2ccccc21 (stereo partly drawn) [Compound 51] | IC50 [4]: > 1 µM
> 1 | 0.471 | 0.31 | CN[C@@H](C)C(=O)N[C@H](C(=O)N1C[C@@H](NC(=O)c2cccc(C(=O)N[C@H]3C[C@@H](C(=O)NCc4ccc(O)c(OC)c4)N(C(=O)[C@@H](NC(=O)[C@H](C)NC)C(C)(C)C)C3)c2)C[C@H]1C(=O)NCc1ccc(O)c(OC)c1)C(C)(C)C [Compound 6] | 
 |  |  | CN[C@@H](CO)C(=O)N[C@H](C(=O)N1C[C@@H](NC(=O)c2cc(C(=O)N[C@H]3C[C@@H](C(=O)N[C@H](C)c4ccccc4)N(C(=O)[C@@H](NC(=O)[C@H](CO)NC)C(C)(C)C)C3)[nH]n2)C[C@H]1C(=O)N[C@H](C)c1ccccc1)C(C)(C)C [Compound P3-91] | IC50 [5]: > 1 µM; IC50 [6]: 0.152 µM; IC50 [7]: 0.225 µM
 |  |  | CN[C@@H](C)C(=O)N[C@H](C(=O)N1C[C@@H](NC(=O)c2ccc(C(=O)N[C@H]3C[C@@H](C(=O)N[C@@H]4CCCc5ccccc54)N(C(=O)[C@@H](NC(=O)[C@H](C)NC)C(C)(C)C)C3)nc2)C[C@H]1C(=O)N[C@@H]1CCCc2ccccc21)C(C)(C)C [Compound P3-94] | IC50 [5]: > 1 µM; IC50 [6]: 0.003 µM; IC50 [7]: 0.006 µM
 |  |  | CN[C@@H](C)C(=O)N[C@H](C(=O)N1CCC[C@H]1CN(CCc1ccccc1)C(=O)CCC#CC#CCCC(=O)N(CCc1ccccc1)C[C@@H]1CCCN1C(=O)[C@@H](NC(=O)[C@H](C)NC)C(C)(C)C)C(C)(C)C [Compound P4-21] | IC50 [8]: > 1 µM; IC50 [9]: 0.151 µM; IC50 [10]: 0.175 µM
 |  |  | CC[C@@H](NC)C(=O)N[C@@H](C(=O)N[C@@H](C)C(=O)N[C@H](COCC#CC#CCOC[C@@H](NC(=O)C1CCCN1C(=O)[C@@H](NC(=O)[C@H](C)NC)C(C)(C)C)C1CCCCC1)C(C)C)C1CCCCC1 (stereo partly drawn) [Compound H-9] | IC50 [8]: > 1 µM; IC50 [9]: 0.005 µM; IC50 [10]: 0.004 µM
> 1 | 0.04 | 0.059 | CN[C@@H](C)C(=O)N[C@H](C(=O)N1C[C@@H](n2cc(CCC(=O)N[C@@H]3CC(C(=O)N[C@H](C)c4ccccc4)N(C(=O)C(NC(=O)[C@H](CO)NC)C(C)(C)C)C3)nn2)C[C@H]1C(=O)N[C@@H]1CCCc2ccccc21)C(C)(C)C (stereo partly drawn) [Compound 205] | 
 |  |  | CN[C@@H](C)C(=O)N[C@@H](CC(=O)NCC=CC=CCNC(=O)C[C@H](NC(=O)[C@H](C)NC)C(=O)N1CCC[C@H]1C(=O)N[C@@H]1CCCc2ccccc21)C(=O)N1CCC[C@H]1C(=O)N[C@@H]1CCCc2ccccc21 [Compound P2-42] | IC50 [8]: > 1 µM; IC50 [9]: 0.091 µM; IC50 [10]: 0.148 µM
> 1 | 0.706 | 0.982 | CN[C@@H](C)C(=O)N[C@H](C(=O)N1C[C@@H](NC(=O)c2cccc(C(=O)N[C@H]3C[C@@H](C(=O)NCc4ccc(OC)c(O)c4)N(C(=O)[C@@H](NC(=O)[C@H](C)NC)C(C)(C)C)C3)c2)C[C@H]1C(=O)NCc1ccc(OC)c(O)c1)C(C)(C)C [Compound 5] | 
> 1 | 0.392 | 0.564 | CN[C@@H](C)C(=O)NC(C(=O)N[C@@H](CCNC(=O)CCc1cn([C@H]2C[C@@H](C(=O)N[C@@H]3CCCc4ccccc43)N(C(=O)[C@@H](NC(=O)[C@H](C)NC)C3CCCCC3)C2)nn1)C(=O)N[C@H](C)C(C)C)C(C)C (stereo partly drawn) [Compound 204] | 
> 1 | 0.0163 | 0.0357 | CN[C@@H](C)C(=O)N[C@H](C(=O)N[C@@H](CCNC(=O)c1cccc(C(=O)N[C@H]2C[C@@H](C(=O)N[C@@H]3CCCc4ccccc43)N(C(=O)[C@@H](NC(=O)[C@H](C)NC)C(C)(C)C)C2)c1)C(=O)N[C@H](C)c1ccccc1)C(C)C [Compound 175] | 
 | > 1 | > 1 | CN[C@@H](C)C(=O)N[C@H](C(=O)N1C[C@@H](NC(=O)c2cccc(C(=O)N[C@H]3C[C@@H](C(=O)N[C@H](C)c4ccccn4)N(C(=O)[C@@H](NC(=O)[C@H](C)NC)C(C)(C)C)C3)c2)C[C@H]1C(=O)N[C@H](C)c1ccccn1)C(C)(C)C [Compound 26] | IC50 [4]: > 1 µM
> 1 | 0.536 | 0.564 | CN[C@@H](C)C(=O)N[C@H](C(=O)N1CCC[C@H]1CN1C(=O)OC[C@@H]1Cc1ccccc1)[C@@H](C)OCC#CC#CCO[C@H](C)[C@H](NC(=O)[C@H](C)NC)C(=O)N1CCC[C@H]1CN1C(=O)OC[C@@H]1Cc1ccccc1 [Compound 82] | 
> 1 | 0.025 | 0.028 | CN[C@@H](C)C(=O)N[C@@H](C)C(=O)N1C[C@@H](NC(=O)c2cccc(C(=O)N[C@H]3C[C@@H](C(=O)N[C@@H]4CCCc5ccccc54)N(C(=O)[C@@H](NC(=O)[C@H](C)NC)C(C)(C)C)C3)c2)C[C@H]1C(=O)N[C@H](C)c1ccccc1 [Compound 172] | 
 |  |  | CN[C@@H](C)C(=O)N[C@H](C(=O)N1CCC[C@H]1CN(CCCCCCN(CCc1ccccc1)C[C@@H]1CCCN1C(=O)[C@@H](NC(=O)[C@H](C)NC)C(C)(C)C)CCc1ccccc1)C(C)(C)C [Compound P4-22] | IC50 [8]: > 1 µM; IC50 [9]: 0.022 µM; IC50 [10]: 0.04 µM
> 1 | 0.128 | 0.18 | CN[C@@H](C)C(=O)NC(C(=O)N[C@@H](CCNC(=O)CCc1cn([C@H]2C[C@@H](C(=O)N[C@@H]3CCCc4ccccc43)N(C(=O)[C@@H](NC(=O)[C@H](C)NC)C(C)(C)C)C2)nn1)C(=O)N[C@H](C)c1ccccc1)C(C)(C)C (stereo partly drawn) [Compound 197] | 
 |  |  | CN[C@@H](C)C(=O)N[C@H](C(=O)N1CCC[C@H]1CN(CC#CC#CCN(CCc1ccccc1)C[C@@H]1CCCN1C(=O)[C@@H](NC(=O)[C@H](C)NC)C(C)(C)C)CCc1ccccc1)C(C)(C)C [Compound P4-20] | IC50 [8]: > 1 µM; IC50 [9]: 0.061 µM; IC50 [10]: 0.041 µM
> 1 | 0.614 | > 1 | CN[C@@H](C)C(=O)N[C@@H](CCCCNC(=O)c1cc(C(=O)NCCCC[C@H](NC(=O)[C@H](C)NC)C(=O)N2CCC[C@H]2Cn2nnnc2Sc2ccccc2)[nH]n1)C(=O)N1CCC[C@H]1Cn1nnnc1Sc1ccccc1 [Compound 208] | 

SMILES | IC50 [1] [µM] | IC50 [2] [µM] | IC50 [3] [µM] | other results
CN[C@@H](C)C(=O)N[C@@H](CCCCCC[C@H](NC(=O)[C@H](C)NC)C(=O)N[C@H]1c2ccccc2C[C@@H]1NC(=O)c1cc2ccccc2cc1OC)C(=O)N[C@H]1c2ccccc2C[C@@H]1NC(=O)c1cc2ccccc2cc1OC [Compound 58] | > 1 | > 1 | > 1 | 
CN[C@@H](C)C(=O)N[C@H](C(=O)N[C@@H](CCNC(=O)c1ccc(C#Cc2ccc(C(=O)N[C@H]3C[C@@H](C(=O)N[C@@H]4CCCc5ccccc54)N(C(=O)[C@@H](NC(=O)[C@H](C)NC)C(C)(C)C)C3)cc2)cc1)C(=O)NC(C)C(C)C)C(C)C (stereo partly drawn) [Compound 194] | > 1 | 0.057 | 0.06 | 
CN[C@@H](C)C(=O)N[C@@H](CCCCCC[C@H](NC(=O)[C@H](C)NC)C(=O)N1CCC[C@H]1c1ncc(C(=O)NC(c2ccccc2)c2ccccc2)o1)C(=O)N1CCC[C@H]1c1ncc(C(=O)NC(c2ccccc2)c2ccccc2)o1 [Compound 23] | > 1 | > 1 | > 1 | 
CN[C@@H](C)C(=O)N[C@H](C(=O)N1C[C@@H](NC(=O)c2cccc(C(=O)N[C@H]3C[C@@H](C(=O)NC4CCCc5cccc(F)c54)N(C(=O)[C@@H](NC(=O)[C@H](C)NC)C(C)(C)C)C3)c2)C[C@H]1C(=O)NC1CCCc2cccc(F)c21)C(C)(C)C (single isomer, unassigned) [Compound 71] |  | 0.005 | 0.0091 | IC50 [4]: > 1 µM
CN[C@@H](C)C(=O)N[C@H](C(=O)N1C[C@@H](NC(=O)c2cccc(C(=O)N[C@H]3C[C@@H](C(=O)NCCc4ccc(N)cc4)N(C(=O)[C@@H](NC(=O)[C@H](C)NC)C(C)(C)C)C3)c2)C[C@H]1C(=O)NCCc1ccc(N)cc1)C(C)(C)C [Compound 4] | > 1 | > 1 | 0.739 | 
CN[C@@H](C)C(=O)N[C@H](C(=O)N1C[C@@H](NC(=O)c2cccc(C(=O)N[C@H]3C[C@@H](C(=O)NC4CCCc5ccc([N+](=O)[O-])cc54)N(C(=O)[C@@H](NC(=O)[C@H](C)NC)C(C)(C)C)C3)c2)C[C@H]1C(=O)NC1CCCc2ccc([N+](=O)[O-])cc21)C(C)(C)C (single isomer, unassigned) [Compound 64] | > 1 | 0.18 | 0.151 | 
